Reference: patent US20080213250A1, “Use of Eph Receptor Inhibitors for the Treatment of Neurodegenerative Diseases” (priority 2004, published 2008)

Experiments:
Assay in all cases: Chemical proteomics pull-down with immobilized compound, LC-MS/MS identification
Conditions in all cases: maximum in any chemical proteomics experiment
EphA2 = EphA2 (Mus musculus, UniProt Q03145)
EphA3 = target: T1, EphA3 (Mus musculus, UniProt P29319)
T1 sequence (P29319 21-983): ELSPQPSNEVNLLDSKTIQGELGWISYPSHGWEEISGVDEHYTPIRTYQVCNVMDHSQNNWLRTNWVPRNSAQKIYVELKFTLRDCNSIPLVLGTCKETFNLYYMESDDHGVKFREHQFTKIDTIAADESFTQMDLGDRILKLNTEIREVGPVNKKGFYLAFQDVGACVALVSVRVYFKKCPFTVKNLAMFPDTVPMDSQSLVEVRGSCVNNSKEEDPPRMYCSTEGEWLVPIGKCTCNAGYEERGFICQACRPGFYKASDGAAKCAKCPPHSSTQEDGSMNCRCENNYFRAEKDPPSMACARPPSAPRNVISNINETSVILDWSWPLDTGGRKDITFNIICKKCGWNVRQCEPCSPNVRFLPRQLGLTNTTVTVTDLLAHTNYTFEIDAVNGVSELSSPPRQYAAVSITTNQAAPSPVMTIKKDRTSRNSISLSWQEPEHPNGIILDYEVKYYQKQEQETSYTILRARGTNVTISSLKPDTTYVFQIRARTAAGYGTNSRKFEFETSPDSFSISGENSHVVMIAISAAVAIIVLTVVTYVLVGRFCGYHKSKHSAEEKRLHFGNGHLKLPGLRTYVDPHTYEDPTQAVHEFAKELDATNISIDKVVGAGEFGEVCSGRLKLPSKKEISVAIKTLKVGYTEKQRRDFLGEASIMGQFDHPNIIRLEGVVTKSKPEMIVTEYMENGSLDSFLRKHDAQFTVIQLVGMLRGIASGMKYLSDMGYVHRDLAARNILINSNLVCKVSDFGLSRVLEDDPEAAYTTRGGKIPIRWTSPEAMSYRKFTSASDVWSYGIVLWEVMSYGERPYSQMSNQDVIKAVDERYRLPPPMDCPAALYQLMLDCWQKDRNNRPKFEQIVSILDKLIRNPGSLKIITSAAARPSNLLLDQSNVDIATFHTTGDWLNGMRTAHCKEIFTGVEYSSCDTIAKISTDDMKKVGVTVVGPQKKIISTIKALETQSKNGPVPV

EphB1 = target: T2, EphB1 (Mus musculus, UniProt Q8CBF3)
T2 sequence (Q8CBF3 18-984): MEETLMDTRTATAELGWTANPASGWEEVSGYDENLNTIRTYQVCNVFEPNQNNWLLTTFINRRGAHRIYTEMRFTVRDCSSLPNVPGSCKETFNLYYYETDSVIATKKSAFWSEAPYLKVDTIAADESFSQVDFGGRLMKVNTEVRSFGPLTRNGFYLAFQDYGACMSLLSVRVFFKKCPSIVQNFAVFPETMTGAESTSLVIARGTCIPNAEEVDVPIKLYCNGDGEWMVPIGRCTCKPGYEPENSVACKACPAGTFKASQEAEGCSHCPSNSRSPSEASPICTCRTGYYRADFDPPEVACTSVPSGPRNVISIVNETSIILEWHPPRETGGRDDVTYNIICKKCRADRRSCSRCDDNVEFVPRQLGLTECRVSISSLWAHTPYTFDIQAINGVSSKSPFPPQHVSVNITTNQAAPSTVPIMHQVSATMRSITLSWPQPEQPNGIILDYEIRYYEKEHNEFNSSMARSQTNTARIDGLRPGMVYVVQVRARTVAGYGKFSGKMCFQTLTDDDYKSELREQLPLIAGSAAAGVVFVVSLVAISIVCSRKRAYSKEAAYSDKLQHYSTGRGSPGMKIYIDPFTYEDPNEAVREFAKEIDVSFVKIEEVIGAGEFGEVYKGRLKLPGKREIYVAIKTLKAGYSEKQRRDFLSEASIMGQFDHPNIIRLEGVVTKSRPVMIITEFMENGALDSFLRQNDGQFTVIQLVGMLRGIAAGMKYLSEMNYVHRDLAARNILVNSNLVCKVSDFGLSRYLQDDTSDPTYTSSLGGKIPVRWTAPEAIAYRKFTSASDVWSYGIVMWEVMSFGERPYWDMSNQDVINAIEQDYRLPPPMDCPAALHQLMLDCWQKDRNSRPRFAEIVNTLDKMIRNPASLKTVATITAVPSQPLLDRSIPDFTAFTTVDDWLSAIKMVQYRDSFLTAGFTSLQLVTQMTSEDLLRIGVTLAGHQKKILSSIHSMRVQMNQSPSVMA

EphB6 = target: T3, EphB6 (Mus musculus, UniProt O08644)
T3 sequence (O08644 33-1014): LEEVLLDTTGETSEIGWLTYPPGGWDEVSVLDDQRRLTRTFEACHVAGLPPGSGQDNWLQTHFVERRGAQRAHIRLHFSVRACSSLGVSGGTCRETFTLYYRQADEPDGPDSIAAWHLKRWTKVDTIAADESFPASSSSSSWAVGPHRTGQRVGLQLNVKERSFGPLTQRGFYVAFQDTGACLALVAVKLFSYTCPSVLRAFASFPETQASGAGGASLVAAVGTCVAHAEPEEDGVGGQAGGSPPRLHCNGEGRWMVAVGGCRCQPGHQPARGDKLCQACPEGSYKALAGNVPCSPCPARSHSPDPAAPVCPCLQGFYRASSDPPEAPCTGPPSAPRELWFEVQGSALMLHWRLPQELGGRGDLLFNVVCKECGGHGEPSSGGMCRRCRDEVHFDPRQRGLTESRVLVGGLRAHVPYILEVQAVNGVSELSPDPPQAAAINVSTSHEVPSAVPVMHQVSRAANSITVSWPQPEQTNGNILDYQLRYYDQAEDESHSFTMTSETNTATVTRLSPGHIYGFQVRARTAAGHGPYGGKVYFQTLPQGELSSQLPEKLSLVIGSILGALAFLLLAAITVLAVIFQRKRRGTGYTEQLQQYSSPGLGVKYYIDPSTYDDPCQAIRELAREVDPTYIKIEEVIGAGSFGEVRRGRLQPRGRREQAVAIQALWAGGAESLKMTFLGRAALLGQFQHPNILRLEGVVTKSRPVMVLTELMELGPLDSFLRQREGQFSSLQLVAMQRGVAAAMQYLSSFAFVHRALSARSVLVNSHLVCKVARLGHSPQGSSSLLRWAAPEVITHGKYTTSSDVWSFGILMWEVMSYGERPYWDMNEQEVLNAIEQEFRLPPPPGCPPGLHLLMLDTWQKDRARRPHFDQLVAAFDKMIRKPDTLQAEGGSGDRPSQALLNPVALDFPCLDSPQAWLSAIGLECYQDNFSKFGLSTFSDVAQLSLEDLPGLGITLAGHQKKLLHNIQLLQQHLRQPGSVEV

Chain of EphA2 (Q03145 26-977): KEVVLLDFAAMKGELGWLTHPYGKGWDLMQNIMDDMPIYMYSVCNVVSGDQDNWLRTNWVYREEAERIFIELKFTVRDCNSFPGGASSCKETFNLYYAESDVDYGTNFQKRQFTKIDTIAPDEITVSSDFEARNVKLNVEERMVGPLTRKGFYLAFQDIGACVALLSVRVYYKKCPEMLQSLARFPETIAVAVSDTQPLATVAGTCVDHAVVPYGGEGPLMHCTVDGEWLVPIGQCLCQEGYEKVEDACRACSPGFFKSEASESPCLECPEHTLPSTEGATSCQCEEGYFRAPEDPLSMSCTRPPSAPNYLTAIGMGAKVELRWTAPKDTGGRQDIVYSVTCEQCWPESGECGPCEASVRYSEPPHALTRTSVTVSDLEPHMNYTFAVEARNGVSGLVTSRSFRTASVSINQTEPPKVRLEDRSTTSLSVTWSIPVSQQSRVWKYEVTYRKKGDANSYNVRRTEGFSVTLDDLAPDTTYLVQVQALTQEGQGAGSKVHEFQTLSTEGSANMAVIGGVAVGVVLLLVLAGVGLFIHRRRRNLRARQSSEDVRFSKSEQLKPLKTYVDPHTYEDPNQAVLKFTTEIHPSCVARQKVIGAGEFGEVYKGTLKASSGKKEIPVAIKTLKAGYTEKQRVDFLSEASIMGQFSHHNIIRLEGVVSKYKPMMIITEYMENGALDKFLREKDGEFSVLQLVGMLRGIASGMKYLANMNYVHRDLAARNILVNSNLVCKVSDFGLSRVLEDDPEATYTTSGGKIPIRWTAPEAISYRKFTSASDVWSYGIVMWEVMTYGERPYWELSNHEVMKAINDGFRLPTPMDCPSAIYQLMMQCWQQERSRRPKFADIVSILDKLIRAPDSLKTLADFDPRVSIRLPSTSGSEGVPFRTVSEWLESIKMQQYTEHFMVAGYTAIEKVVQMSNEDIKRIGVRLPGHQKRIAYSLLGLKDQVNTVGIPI

| maximal number of non-redundant peptides identified, EphA2 (EphA2) | maximal number of non-redundant peptides identified, EphA3 (EphA3) | maximal number of non-redundant peptides identified, EphB1 (EphB1) | maximal number of non-redundant peptides identified, EphB6 (EphB6) | Structure (SMILES) |
| --- | --- | --- | --- | --- |
| 18 | 1 | – | – | CC(C)[C@H](CO)Nc1nc(Nc2ccc(C(=O)O)c(Cl)c2)c2ncn(C(C)C)c2n1 [Purvalanol B] |
| – | – | 5 | 7 | CSc1cccc(Nc2ncc3cc(-c4c(Cl)cccc4Cl)c(=O)n(C)c3n2)c1 [PD173955] |
